# Experimental data reported in patent US8754068B2, “Modified C-3 betulinic acid derivatives as HIV maturation inhibitors” (priority 2010, dated 2014).
# Test system: recombinant NL4-3 virus (Renilla luciferase in nef, Gag P373S)
# Experiment: HIV cell culture assay (luciferase reporter virus in MT-2 cells)
# Assay type: cell-based
# Conditions: NL43
# In short: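 Activity was read as luciferase output (Dual Luciferase reagents premixed with lysis solution) after 4–5 days of infection in serially diluted inhibitor. Host cells were MT-2 in 10% FBS RPMI. The reporter virus came from transfected 293T cells and was titered on MT-2.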
row,Compound,EC50 [µM]
1,"CC(C)[C@@H]1CC[C@]2(C(=O)O)CC[C@]3(C)[C@H](CC[C@@H]4[C@@]5(C)CC[C@H](c6cccc(C(=O)O)c6)C(C)(C)[C@@H]5CC[C@]43C)[C@@H]12 [Example 3a, (3aS,5aR,5bR,7aS,9S,11aS,13aR,13bR)-9-(3-carboxyphenyl)-1-isopropyl-5a,5b,8,8,11a-pentamethylicosahydro-1H-cyclopenta[a]chrysene-3a-carboxylic acid]",2
2,"C=C(C)[C@@H]1CC[C@]2(CO)CC[C@]3(C)[C@H](CC[C@@H]4[C@@]5(C)CC=C(c6ccc(C(=O)O)cc6)C(C)(C)[C@@H]5CC[C@]43C)[C@@H]12 [Example 5b, 4-((1R,3aS,5aR,5bR,7aR,11aS,11bR,13bR)-3a-(hydroxymethyl)-5a,5b,8,8,11a-pentamethyl-1-(prop-1-en-2-yl)-2,3,3a,4,5,5a,5b,6,7,7a,8,11,11a,11b,12,13,13a,13b-octadecahydro-1H-cyclopenta[a]chrysen-9-yl)benzoic acid]",< 1
3,"C=C(C)[C@@H]1CC[C@]2(CO)CC[C@]3(C)[C@H](CC[C@@H]4[C@@]5(C)CC=C(c6ccc(C(=O)O)cc6C)C(C)(C)[C@@H]5CC[C@]43C)[C@@H]12 [Example 5r, 4-((1R,3aS,5aR,5bR,7aR,11aS,11bR,13aR,13bR)-3a-(hydroxymethyl)-5a,5b,8,8,11a-pentamethyl-1-(prop-1-en-2-yl)-2,3,3a,4,5,5a,5b,6,7,7a,8,11,11a,11b,12,13,13a,13b-octadecahydro-1H-cyclopenta[a]chrysen-9-yl)-3-methylbenzoic acid]",< 1
